Measurements published in PMC8198038, “In Vitro Evaluation of Antiproliferative Properties of Novel Organotin(IV) Carboxylate Compounds with Propanoic Acid Derivatives on a Panel of Human Cancer Cell Lines” (Molecules, 2021).

Assays:
[1] = system: HT-29 (human colorectal adenocarcinoma) cells; assay: MTT assay, HT-29 cells; format: cell-based; settings: MTT assay, 48 h incubation; read-out: IC50 (mean ± SD), HT-29, MTT
Method: (§1) The cell proliferations of ligand precursors and organotin(IV) compounds were evaluated with the aid of MTT (3-(4,5-dimethylthiazol-2-yl)-2,5-12 diphenyltetrazolium bromide) and CV (crystal violet) assays toward prostate (PC-3), colon (HT-29), breast (MCF-7) and hepatic (HepG2) cancer cell lines, and normal mouse embryonic fibroblast cells (NIH 3T3). The cells were cultivated in T75 flasks containing 10 mL of complete medium and kept at 37 °C and 5% CO2 […]. The nutrient medium was RPMI-1640 (PAA Laboratories) supplemented with 10% foetal bovine serum, L-glutamine, and penicillin/streptomycin (Sigma). Afterward, 5.000 cells of PC-3 and MCF-7 and 1.500 cells of HT-29 and HepG2 were transferred into 96 well-plates and used for MTT and CV assays. For microscopy investigations as well as FACS measurements (except for ROS/RNS measurements), MCF-7 cells were seeded overnight in 6-well plates (150,000 cells/well) in […] of complete medium. […] In all assays, control cells were untreated MCF-7 cells incubated for the same time period as treated cells and treated with appropriate reagents in various assays. BD FACS Aria III was used for flow cytometry experiments and results were analysed using BD FACSDiva software (BD Biosciences, Heidelberg, Germany) and Cyflogic (V 1.2.1, CyFlo Ltd., Turku, Finland). A fluorescence microscope Invitrogen EVOS FL 2 Auto 2 Cell Imaging System was used for visualization of the cells as well as for detection of fluorescence in the cells.
(§2) Ligands HL1‒HL3, organotin(IV) compounds, and cisplatin were investigated in 9 different concentrations (100, 50, 10, 5, 1, 0.5, 0.1, 0.05, 0.01 μM). Using the complete medium, each stock solution of the test compounds (20 mM in DMSO) was diluted to obtain the working solution. The final concentration of DMSO never overstepped 0.5%, which is non-toxic to the cells. Three technical replicates were performed for each concentration. The treated cells were incubated for 48 h at 37 °C under 5% CO2 and the viability of the cells was determined using MTT and CV assays according to the literature procedure. The IC50 values, defined as 50% inhibitory concentration, were calculated with a four-parameter logistic function and presented in a mean. All experiments were performed in triplicate.

MCF-7 cells [2] = assay: Autophagy analysis (AO, flow cytometry); format: cell-based, human; settings: 48 h, IC50 concentration
Method: Thereafter, the medium was collected into 15 mL Falcon tubes, while the cells were washed with 1 mL of PBS. The cells were detached using […] of trypsin. The deactivation of trypsination was performed with the formerly collected medium, while for the untreated cells, 1 mL of complete medium was added, and the cells were collected by the pipette tip harvesting technique from each well into a new Falcon tube, which then was centrifuged for 3 min at 1000 rpm. The supernatant was discarded, and the cells were washed with 1 mL of PBS, centrifuged for 3 min at 1000 rpm and then the supernatant was discarded. Afterwards, 500 μL of the acridine orange (AO) working solution was used to stain the cells which then were incubated for 30 min at 37 °C under 5% CO2. The deactivation of the staining process was performed by adding 1 mL of PBS, and after centrifugation for 3 min at 1000 rpm, the supernatant was discarded. The cells were resuspended in 1 mL of PBS and analysed by flow cytometry.

[3] = system: HT-29 (human colorectal adenocarcinoma) cells; assay: CV (crystal violet) assay, HT-29 cells; format: cell-based; settings: CV assay, 48 h incubation; read-out: IC50 (mean ± SD), HT-29, CV
Method: as §1, §2

[4] = system: NIH3T3 (normal mouse embryonic fibroblast) cells; assay: MTT assay, NIH3T3 cells; format: cell-based; settings: MTT assay, 48 h incubation, normal cells; read-out: IC50 (mean ± SD), NIH3T3, MTT
Method: as §1, §2

[5] = system: PC-3 (human prostate cancer) cells; assay: MTT assay, PC-3 cells; format: cell-based; settings: MTT assay, 48 h incubation; read-out: IC50 (mean ± SD), PC-3, MTT
Method: as §1, §2

[6] = system: HepG2 (hepatocellular cancer) cells; assay: MTT assay, HepG2 cells; format: cell-based, human; settings: MTT assay, 48 h incubation; read-out: IC50 (mean ± SD), HepG2, MTT
Method: as §1, §2

MCF-7 cells [7] = assay: Tin and platinum uptake by ICP-MS; format: cell-based, human; settings: 24 h, at IC50 (CV assay): cisplatin 15.83 µM, Ph3SnL1 0.218 µM
Method: The cellular uptake features of metal-based cytotoxic drugs strongly impact the underlying anticancer performance. Intracellular tin and platinum uptake in MCF-7 cells has been investigated with the aid of inductively coupled plasma mass spectrometry (ICP-MS) analysis. The treatment of cells with Ph3SnL1 and cisplatin for 24 h in concentrations corresponding to their IC50 values, as obtained by the CV assay, was performed.
The tin and platinum uptake analysis was performed on MCF-7 cells with the aid of inductively coupled plasma mass spectrometry (ICP-MS). The cells were seeded in T25 flasks and allowed to grow. After 24 h, the exponentially growing cells were treated with 10 mL of Ph3SnL1 and cisplatin in concentrations corresponding to their IC50 values for 24 h, and thereafter trypsinised and collected by centrifugation at 1200 rpm for 8 min. Using 5 mL of ice-cold PBS the cells were washed and the metal uptake concentration in prepared samples was determined according to the previously described procedure. A Thermo Scientific iCAP Qc ICP-MS (Thermo Scientific, Bremen, Germany) instrument using the supplied autotune protocols and operational software Qtegra was employed for metal uptake determination. The measurements were performed on isotopes ^119Sn, ^120Sn, ^195Pt, and ^198Pt and the concentrations of metals were expressed as ppb (µg/L).

[8] = system: NIH3T3 (normal mouse embryonic fibroblast) cells; assay: CV (crystal violet) assay, NIH3T3 cells; format: cell-based; settings: CV assay, 48 h incubation, normal cells; read-out: IC50 (mean ± SD), NIH3T3, CV
Method: as §1, §2

MCF-7 cells [9] = assay: Cell cycle analysis (DAPI, flow cytometry); format: cell-based, human; settings: 48 h, IC50 dose
Method: The mode of action was further investigated by analysing the effects of Ph3SnL1 and cisplatin on the cell cycle phase distribution of MCF-7 cells. This was evaluated by cytofluorimetric analysis using DAPI staining. […] While cisplatin acts on DNA (among other effects), the lipophilic cationic nature of triphenyltin(IV) may guide it preferentially to mitochondria to intervene with cells’ energy metabolism.
The Falcon tubes were centrifuged for 3 min at 1000 rpm and the supernatant was discarded. Afterwards, the cells were washed with 1 mL of PBS, centrifuged for 3 min at 1000 rpm and the supernatant was discarded. The cells were resuspended in 300 μL of ice-cold PBS buffer and then fixed by adding them dropwise to 700 μL of ice-cold absolute ethanol. The cells were stored for 24 h at 4 °C, then centrifuged for 3 min at 1000 rpm, washed with PBS and stained with 1 mL of DAPI (4′,6-diamidino-2-phenylindole) working solution [39]. The prepared cells were incubated at room temperature for 10 min and analysed by flow cytometry.

SMILES | IC50 [1] [µM] | autophagy (AO) (MCF-7 cells [2]) | IC50 [3] [µM] | IC50 [4] [µM] | IC50 [5] [µM] | IC50 [6] [µM] | intracellular metal (tin / platinum) uptake (MCF-7 cells [7]) | IC50 [8] [µM] | cell cycle phase distribution (MCF-7 cells [9]) | cell population in G1/G0 phase (MCF-7 cells [9]) | cell population in S and G2/M phases (MCF-7 cells [9]) | population of cells in the sub-G1 phase (MCF-7 cells [9])
O=C(CCc1nc(-c2ccccc2)c(-c2ccccc2)o1)[O][Sn]([c]1ccccc1)([c]1ccccc1)[c]1ccccc1 [Ph3SnL1, (3-(4,5-Diphenyloxazol-2-yl)propanoato)triphenyltin(IV)] | 0.237 ± 0.012 | autophagy process is not triggered | 0.465 ± 0.046 | 2.17 ± 0.53 | 0.181 ± 0.027 | 0.146 ± 0.028 | two-fold lower concentration of tin in MCF-7 cells in comparison to platinum | 2.66 ± 0.52 | does not lead to any significant changes in the cell cycle distribution | – | – | –
N.N.[Cl][Pt][Cl] [cisplatin, reference compound] | 14.2 ± 0.73 | induces an autophagic response | 16 ± 0.95 | 8.81 ± 0.51 | 14.3 ± 0.26 | 3.47 ± 0.46 | approximately twofold higher platinum concentration in MCF-7 cells compared to tin | 14.2 ± 1.95 | – | considerable decrease | increase | did not lead to any observable changes
